Laboratory results as given in US20090227601A1, “Bradykinin 1 Receptor Antagonists” (Amgen Inc., priority 2005, published 2009).
pIC50: −log10 of the molar value. Values joined by “and” are separate entries in the source; they are usually repeats but may differ in a detail not shown here. Equal values may be shown once. Where a name gives a salt, the structure may show the parent alone.

Biological target: T1, hB2 receptor (Homo sapiens, UniProt P30411)
T1 construct: host or cells: CHO-K1
T1 sequence (P30411 1-391): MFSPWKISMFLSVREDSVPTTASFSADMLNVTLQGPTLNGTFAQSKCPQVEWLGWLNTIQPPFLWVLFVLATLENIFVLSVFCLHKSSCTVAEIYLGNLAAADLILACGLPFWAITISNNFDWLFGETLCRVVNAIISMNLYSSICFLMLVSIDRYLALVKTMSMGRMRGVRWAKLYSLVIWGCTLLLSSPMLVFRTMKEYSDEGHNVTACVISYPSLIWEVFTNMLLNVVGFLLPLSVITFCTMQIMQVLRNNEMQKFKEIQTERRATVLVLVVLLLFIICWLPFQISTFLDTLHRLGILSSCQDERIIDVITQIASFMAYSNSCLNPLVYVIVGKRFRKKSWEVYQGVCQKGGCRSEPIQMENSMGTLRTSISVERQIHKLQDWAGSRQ
Experiment: In vitro Assay of hB2 Receptor Function using Calcium Flux
Assay type: cell-based
Details: recombinant CHO cells, antagonist IC50 against agonist at EC80
Method: In vitro Assay of hB2 Receptor Function using Calcium Flux The intracellular calcium flux induced by hB2 receptor activation was analyzed using an hB2 recombinant cell line (CHO-K1) purchased from PerkinElmer (Catalog Number: RBHB2C000EA) on a fluorometric imaging plate reader (FLIPR). […] Culture medium was changed every other day. 24 h prior to the FLIPR assay, the hB2/CHO cells were washed once with PBS (Invitrogen) and 10 mL of Versene (1:5000, Invitrogen, Cat# 15040-066) was added to each flask. After 5 min incubation at 37° C., Versene was removed and cells were detached from the flask and resuspended in culture medium. Cells were counted and 25,000 cells/well were plated in 96-well black-sided clear bottom assay plates (Costar #3904). Cells were incubated in a 37° C. CO2 incubator overnight. The media was aspirated from the cells and replaced with 65 μL of dye-loading buffer. The loading buffer was prepared by diluting a stock solution of 0.5 mM Fluo-4 AM (Molecular Probes, dissolved in DMSO containing 10% [w/v] pluronic acid) to a concentration of 1 μM in Clear Dulbecco's Modified Eagle Medium (DMEM) containing 0.1% BSA, 20 mM HEPES, and 2.5 mM probenecid. The cells were dye-loaded for 1 h at RT. The excess dye was removed by washing the cells 2× with assay buffer. The assay buffer consists of Hank's Balanced Salt Solution (HBSS) containing 20 mM HEPES, 0.1% BSA, and 2.5 mM probenecid. After the wash cycles, a volume of 100 μL was left in each well, and the plate was ready to be assayed in the FLIPR System. […] The cell plate and the compound plates were loaded onto the FLIPR and during the assay, fluorescence readings are taken simultaneously from all 96 wells of the cell plate. Ten 1-second readings were taken to establish a stable baseline for each well, then 25 μL from the B1 antagonist plate was rapidly (50 μL/sec.) added. The fluorescence signal was measured in 1-second (1 min) followed by 6-second (2 min) intervals for a total of 3 min to determine if there is any agonist activity with the compounds.

pIC50	Molecule
6.77	1,1-dimethylethyl (3R)-3-((((2R)-1-((4-methylphenyl)sulfonyl)-3-oxo-1,2,3,4-tetrahydro-2-pyrazinyl)acetyl)amino)-1-piperidinecarboxylate; and 1,1-dimethylethyl (3S)-3-((((2R)-1-((4-methylphenyl)sulfonyl)-3-oxo-1,2,3,4-tetrahydro-2-pyrazinyl)acetyl)amino)-1-piperidinecarboxylate [T-1-8]
9.10	2-((2R)-1-((2,3-dichlorophenyl)sulfonyl)-3-oxo-1,2,3,4-tetrahydro-2-pyrazinyl)-N-((4S)-3,3-dimethyl-4-piperidinyl)acetamide; and 2-((2R)-1-((2,3-dichlorophenyl)sulfonyl)-3-oxo-1,2,3,4-tetrahydro-2-pyrazinyl)-N-((4R)-3,3-dimethyl-4-piperidinyl)acetamide [T-1-47]
6.40	2-((2R)-1-((4-chloro-2,5-dimethylphenyl)sulfonyl)-3-oxo-1,2,3,4-tetrahydro-2-pyrazinyl)-N-((4S)-3,3-dimethyl-4-piperidinyl)acetamide; and 2-((2R)-1-((4-chloro-2,5-dimethylphenyl)sulfonyl)-3-oxo-1,2,3,4-tetrahydro-2-pyrazinyl)-N-((4R)-3,3-dimethyl-4-piperidinyl)acetamide [T-1-48]
7.04	2-((2R)-1-((4-methylphenyl)sulfonyl)-3-oxo-1,2,3,4-tetrahydro-2-pyrazinyl)-N-((1R,2R,4R)-1,7,7-trimethylbicyclo[2.2.1]hept-2-yl)acetamide; and 2-((2R)-1-((4-methylphenyl)sulfonyl)-3-oxo-1,2,3,4-tetrahydro-2-pyrazinyl)-N-((1R,2S,4R)-1,7,7-trimethylbicyclo[2.2.1]hept-2-yl)acetamide [T-1-2]
6.82 and 6.37	Cc1ccc(S(=O)(=O)N2C=CNC(=O)[C@H]2CC(=O)NC2CCN(C(=O)OC(C)(C)C)CC2(C)C)cc1 (mixture of isomers) [T-1-15, 1,1-dimethylethyl (4R)-3,3-dimethyl-4-((((2R)-1-((4-methylphenyl)sulfonyl)-3-oxo-1,2,3,4-tetrahydro-2-pyrazinyl)acetyl)amino)-1-piperidinecarboxylate; and 1,1-dimethylethyl (4S)-3,3-dimethyl-4-((((2R)-1-((4-methylphenyl)sulfonyl)-3-oxo-1,2,3,4-tetrahydro-2-pyrazinyl)acetyl)amino)-1-piperidinecarboxylate]
8.92	Cc1ccc(S(=O)(=O)N2C=CNC(=O)[C@H]2CC(=O)NC2CCN(Cc3ccncc3)CC2(C)C)cc1 (mixture of isomers) [T-1-25, N-((4R)-3,3-dimethyl-1-(4-pyridinylmethyl)-4-piperidinyl)-2-((2R)-1-((4-methylphenyl)sulfonyl)-3-oxo-1,2,3,4-tetrahydro-2-pyrazinyl)acetamide; and N-((4S)-3,3-dimethyl-1-(4-pyridinylmethyl)-4-piperidinyl)-2-((2R)-1-((4-methyl-phenyl)sulfonyl)-3-oxo-1,2,3,4-tetrahydro-2-pyrazinyl)acetamide]
5.70	Cc1ccc(S(=O)(=O)N2C=CNC(=O)[C@H]2CC(=O)NC2CCC(N3CCC(F)CC3)CC2(C)C)cc1 (mixture of isomers) [T-1-42]
5.64	Cc1ccc(S(=O)(=O)N2C=CNC(=O)[C@H]2CC(=O)NC2CCC(NCC(C)(C)C)CC2(C)C)cc1 (mixture of isomers) [T-1-44]
5.57	Cc1ccc(S(=O)(=O)N2C=CNC(=O)[C@H]2CC(=O)N[C@@H]2CCCC[C@H]2C(C)(C)O)cc1 (mixture of isomers) [T-1-65, N-((1RS,2RS)-2-(1-hydroxy-1-methylethyl)cyclohexyl)-2-((2R)-1-((4-methylphenyl)sulfonyl)-3-oxo-1,2,3,4-tetrahydro-2-pyrazinyl)acetamide]
5.66	Cc1ccc(S(=O)(=O)N2C=CNC(=O)[C@H]2CC(=O)NC2CC(=O)OC(C)(C)C2)cc1 (mixture of isomers) [T-1-67, N-((4RS)-2,2-dimethyl-6-oxotetrahydro-2H-pyran-4-yl)-2-((2R)-1-((4-methylphenyl)sulfonyl)-3-oxo-1,2,3,4-tetrahydro-2-pyrazinyl)acetamide]
8.85	Cc1ccc(S(=O)(=O)N2C=CNC(=O)[C@H]2CC(=O)NC2CCC3(CC2(C)C)OCCO3)cc1 (mixture of isomers) [T-1-111, N-((8RS)-7,7-dimethyl-1,4-dioxaspiro[4.5]dec-8-yl)-2-((2R)-1-((4-methylphenyl)-sulfonyl)-3-oxo-1,2,3,4-tetrahydro-2-pyrazinyl)acetamide]
7.49	Cc1cc(S(=O)(=O)N2C=CNC(=O)[C@H]2CC(=O)N2CCCC(N(C)C3CC3)CC2)c(C)cc1Cl (mixture of isomers) [T-3-28, (3R)-4-((4-chloro-2,5-dimethylphenyl)sulfonyl)-3-(2-((4R/S)-4-(cyclopropyl(methyl)amino)-1-azepanyl)-2-oxoethyl)-3,4-dihydro-2(1H)-pyrazinone trifluoroacetic acid salt]
7.21	Cc1cc(S(=O)(=O)N2C=CNC(=O)[C@H]2CC(=O)N2CCC(N3CCCC3)C(C)(C)C2)c(C)cc1Cl (mixture of isomers) [T-3-30, (3R)-4-((4-chloro-2,5-dimethylphenyl)sulfonyl)-3-(2-((4R/S)-3,3-dimethyl-4-(1-pyrrolidinyl)-1-piperidinyl)-2-oxoethyl)-3,4-dihydro-2(1H)-pyrazinone]
7.68	Cc1ccc(S(=O)(=O)N2C=CNC(=O)[C@H]2CC(=O)NC2CCN(c3ccccc3)CC2)cc1 [T-1-3, 2-((2R)-1-((4-methylphenyl)sulfonyl)-3-oxo-1,2,3,4-tetrahydro-2-pyrazinyl)-N-(1-phenyl-4-piperidinyl)acetamide]
6.15	Cc1ccc(S(=O)(=O)N2C=CNC(=O)[C@H]2CC(=O)NC2CCN(c3ncccn3)CC2)cc1 [T-1-7, 2-((2R)-1-((4-methylphenyl)sulfonyl)-3-oxo-1,2,3,4-tetrahydro-2-pyrazinyl)-N-(1-(2-pyrimidinyl)-4-piperidinyl)acetamide]
7.82	CC(=O)N1CCC(NC(=O)C[C@@H]2C(=O)NC=CN2S(=O)(=O)c2ccc(C)cc2)C(C)(C)C1 (stereo partly drawn) [T-1-18, N-(1-acetyl-3,3-dimethyl-4-piperidinyl)-2-((2R)-1-((4-methylphenyl)sulfonyl)-3-oxo-1,2,3,4-tetrahydro-2-pyrazinyl)acetamide]
6.72	CO[C@H]1CC[C@H](NC(=O)C[C@@H]2C(=O)NC=CN2S(=O)(=O)c2ccc(C)cc2)CC1 [T-1-30, N-(trans-4-(methyloxy)cyclohexyl)-2-((2R)-1-((4-methylphenyl)sulfonyl)-3-oxo-1,2,3,4-tetrahydro-2-pyrazinyl)acetamide]
7.33	Cc1ccc(S(=O)(=O)N2C=CNC(=O)[C@H]2CC(=O)N[C@H]2CC[C@@H](N)CC2)cc1 [T-1-31, N-(cis-4-aminocyclohexyl)-2-((2R)-1-((4-methylphenyl)sulfonyl)-3-oxo-1,2,3,4-tetrahydro-2-pyrazinyl)acetamide]
6.38	Cc1ccc(S(=O)(=O)N2C=CNC(=O)[C@H]2CC(=O)N[C@H]2CC[C@@H](NC(C)C)CC2)cc1 [T-1-35, N-(cis-4-((1-methylethyl)amino)cyclohexyl)-2-((2R)-1-((4-methylphenyl)sulfonyl)-3-oxo-1,2,3,4-tetrahydro-2-pyrazinyl)acetamide]

Molecule	pIC50
Cc1ccc(S(=O)(=O)N2C=CNC(=O)[C@H]2CC(=O)NC2CCC(NC3CC3)CC2(C)C)cc1 (mixture of isomers) [T-1-43]	7.85
Cc1ccc(S(=O)(=O)N2C=CNC(=O)[C@H]2CC(=O)NC2CCC(N3CCCC3)CC2(C)C)cc1 (mixture of isomers) [T-1-50]	8.89
Cc1ccc(S(=O)(=O)N2C=CNC(=O)[C@H]2CC(=O)NC2CC3CCC(C2)N3C)cc1 (stereo partly drawn) [T-1-34, N-((3-endo)-8-methyl-8-azabicyclo[3.2.1]oct-3-yl)-2-((2R)-1-((4-methylphenyl)-sulfonyl)-3-oxo-1,2,3,4-tetrahydro-2-pyrazinyl)acetamide; and N-((3-exo)-8-methyl-8-azabicyclo[3.2.1]oct-3-yl)-2-((2R)-1-((4-methylphenyl)-sulfonyl)-3-oxo-1,2,3,4-tetrahydro-2-pyrazinyl)acetamide]	6.85
